Results from patent publication US20040059104A1, “Nucleotide mimics and their prodrugs” (priority 2002, published 2004).

What was measured:
[1] = target: T1, HIV Reverse Transcriptase (Type B, 66 kDa subunit) (Human immunodeficiency virus type 1 group M subtype B, UniProt P04585); assay: HIV Reverse Transcriptase inhibition assays (RNA-directed DNA polymerization, PicoGreen fluorescence); type: biochemical; settings: Table 1; template (homopolymer or heteropolymer RNA) not stated; read-out: Ki, Inhibition of HIV Reverse Transcriptase by Nucleotide Mimics
T1 construct: purified HIV Reverse Transcriptase (Type B, 66 kDa subunit)
Method: The assays employed to measure inhibition of HIV Reverse Transcriptase (HIV RT) catalyzed/RNA-directed DNA polymerization are described below. The effectiveness of the compounds of the present invention as inhibitors of HIV RT-catalyzed DNA polymerization was measured in the following assays.
This assay was used to measure the ability of the nucleotide mimics of the present invention to inhibit the enzymatic synthesis of complementary strand DNA from a DNA-primed template of homopolymeric RNA. This assay is a modification of a published procedure (Seville, et al., “Fluorometric Assay for DNA Polymerases and Reverse Transcriptase”, BioTechniques 1996, 21, 664-72).
The compounds were tested at various concentrations up to 500 μM final concentration. DNA polymerase activity was measured in a reaction buffer containing primed-RNA template and dTTP diluted to appropriate concentrations in assay buffer. Nucleotide mimics of the present invention were diluted in buffer and pipetted into the wells of a 96-well plate. The reaction was initiated by addition of enzyme and allowed to proceed at 37° C. for 10 minutes. The reaction was quenched by addition of 5 μL 0.2 M EDTA, pH 8.0.
200 μL of diluted PicoGreen dsDNA Quantitation Reagent (Molecular Probes, Inc, Eugene, Oreg.) was added to each well of a 96-well plate and incubated at room temperature for 5 minutes. Plate wells were read on a microplate fluorometer (Molecular Devices Corp., Sunnyvale, Calif.). The wells were excited at 480 nm and the fluorescence emission intensity (RFU) was measured at 520 nm. The percentage of inhibition was calculated according to the following equation:
% Inhibition=[1−(RFU in test reaction−RFU in blank)/(RFU in control reaction−RFU in blank)]×100.
Each inhibitor was titrated over an appropriate range of concentrations, and inhibition constants were determined using the following equations:
v=Vm[S]/(Km(1+[I]/Ki)+[S])
Certain compounds of the present invention were also tested to determine their ability to inhibit HIV RT-catalyzed DNA polymerization on a heteropolymeric primed-RNA template in the presence of all four natural deoxynucleotide triphosphate (dNTP) substrates. This assay is a modification of a published procedure (Parker et al., “Mechanism of Inhibition of Human Immunodeficiency Virus Type 1 Reverse Transcriptase and Human DNA Polymerases α, β, and γ by the 5′-Triphosphates of Carbovir,3′-Azido-3′-deoxythymidine,2′-3′-Dideoxyguanosine, and 3′-Deoxythymidine”, J. Biol. Chem. 1991, 266 (3), 1754-62).
HIV RT DNA polymerase activity was measured in a reaction buffer containing primed-ribosomal RNA template and dNTPs diluted to appropriate concentrations in assay buffer and pipetted into 1.5 mL microcentrifuge tubes. Nucleotide mimics of the present invention were diluted in buffer and tested at various concentrations up to 5 μM final concentration. The reaction was initiated by addition of enzyme and allowed to proceed at 42° C. for 60 to 90 minutes. The reaction was quenched by addition of 12 μL 0.2 M EDTA, pH 8.0.
50 μL each of reaction was transferred to the well of a 96-well plate (in duplicate). 200 μL of diluted PicoGreen dsDNA Quantitation Reagent was added to each well of a 96-well plate and incubated at room temperature for 5 minutes. Plate wells were read on a microplate fluorometer. The wells were excited at 480 nm and the fluorescence emission intensity (RFU) was measured at 520 nm. The percentage of inhibition and inhibition constants […] were determined for representative compounds as described above.

in vitro = settings: human, pH 7.4
[2] = Compound toxicity in CEM-SS cells (MTS staining); type: cell-based; settings: human, read-out: CEM-SS TC50
Method: ollowing paper: Structure-Activity and Cross-Resistance unodeficiency Virus Type 1-Specific ckheit, Jr. et al., Antimicrobial Agents and s were evaluated in CEM-SS cell cultures V-1RF at an MOI of approximately 0.01. At he soluble tetrazolium-based dye MTS viability and quantify compound toxicity of metabolically active cells to yield a soluble analysis of cell viability and compound
At assay termination, the assay plates were stained with the soluble tetrazolium-based dye MTS (CellTiter Reagent Promega) to determine cell viability and quantify compound toxicity. MTS is metabolized by the mitochondrial enzymes of metabolically active cells to yield a soluble formazan product, allowing the rapid quantitative analysis of cell viability and compound cytotoxicity. […] At termination of the assay, 20 μL of MTS reagent was added per well. The microtiter plates were then incubated 4-6 hrs at 37° C. for the HIV cytoprotection assay; the incubation intervals were chosen based on empirically determined times for optimal dye reduction. Adhesive plate sealers were used in place of the lids, the sealed plate was inverted several times to mix the soluble formazan product and the plate was read spectrophotometrically at 490 nm with a Molecular Devices Vmax plate reader.

[BH3-][P+](O)(OCC1OC(n2cc(C)c(=O)[nH]c2=O)CC1N=[N+]=[N-])OP(=O)(O)C(F)(F)P(=O)(O)O (single isomer, unassigned) [Compound 27-isomer 1, 3′-Azido-3′-deoxythymidine 5′-α-P-borano-β,γ-(difluoromethylene)triphosphate]
Ki [1]: 8 nM
half-life at 500 μM (in vitro): > 48 h
CC50 [2]: > 200000 nM
